Results on 19 compounds are retold here after patent US4243668A, “Octahydro-1H-benzo[4,5]furo[3,2-e]-isoquinoline analgesic and narcotic antagonistic compounds” (priority 1979, dated 1981).

Experiment [1] deals with induction of Straub tail in mice by a highly addicting agonist such as morphine. To be noted: Blumberg et al. 1968; cited from earlier work.
The conditions of experiment [2]: cited from earlier work; for intrinsic analgesic activity, in words: background statement.
The test system of experiment [3] is pain induced by phenylquinone. Put plainly: phenylquinone writhing test (oral anti-PQW), analgesic activity. The format is in vivo, female white mice. To be noted: for ED50: Mus musculus, po, mice, oral, phenylquinone writhing, read-out: EFFECT ED50 Oral Anti-PQW. How it is done: A standard procedure for detecting and comparing the analgesic activity of compounds in this series for which there is good correlation with human efficacy is the standard phenylquinone writhing test modified from Siegmund, et al., Proc. Soc. Exp. Biol. Med., 95, 729 (1957). A test compound suspended in 1% methocel® was given orally to fasted (17-21 hours) female white mice, 5-20 animals per double blind test. Aqueous (0.01% phenyl-p-benzoquinone) phenylquinone was injected intraperitoneally at 24 minutes later using 0.20 ml per mouse. […] The effective analgesic dose for 50% of the mice (ED50) was calculated by the moving average method of Thompson, W. R., Bact. Rev., 11, 115-145 (1947).
(An intraperitoneal irritant provokes the stretching counted in writhing tests.)

A further experiment deals with Straub tail. Put plainly: Straub tail reaction (oral), narcotic agonist effect. It is filed as in vivo, CF1 S female mice. To be noted: Mus musculus, mice. How it is done: Narcotic analgesics produce in mice an erection and arching of the tail (90° or more) which is referable to spinal cord stimulation. This Straub tail reaction is not produced by other analgesics, including the narcotic antagonists.
The method used was modified from Shemano, I., and Wendel, H., Tox. Appl. Pharm., 6, 334-9 (1964). CF1 S female mice (18-21 g), 10-20 mice per dose, were intubated with log scaled doses of analgesic in 1% aqueous methylcellulose. A positive Straub tail response was recorded if a tail was erected 90° or more for 5 seconds at any time within 24 minutes after dosing. A quantal Straub tail ED50 was calculated by the moving average method [Thompson, W. R., Bact. Rev., 11, 115-145 (1947)].

Experiment [4] relates to induction of Straub tail in mice by a highly addicting agonist such as morphine. Put plainly: anti-Straub tail test, antagonism of morphine-induced Straub tail (narcotic antagonism). It is filed as in vivo, Female CF1 S mice. To be noted: for ED50: Mus musculus, mice, vs morphine sulfate 30 mg/kg i.p.
[5] abbreviates: sc, s.c., read-out: EFFECT ED50 subcutaneous(s.c.) Anti-Straub Tail.

Each structure is given as a SMILES string. Like-named read-outs stand apart in the source and are kept apart here.

For the compound `C=CCN1CC[C@]23c4c5ccc(O)c4O[C@H]2C(=O)CC[C@@]3(O)[C@H]1C5` [naloxone], the “prevention of morphine-induced Straub tail, in words” value in experiment [1] is recorded as “prevent the induction of Straub tail in mice”.
For `C=CCN1CC[C@]23CCCC[C@H]2[C@H]1Cc1ccc(O)cc13` [levallorphan], the “intrinsic analgesic activity, in words” value in experiment [2] is listed as “some analgesic effects”.
Regarding `CC(C)CN1CCC23c4cccc(O)c4OC2CCCC3C1` (stereo not shown) [Example 32], the ED50 was 63 mg/kg in experiment [3], greater than 135 mg/kg in the experiment with Straub tail and 0.03 mg/kg in experiment [4] (setting [5]).
Turning to `CC(C)=CCN1CCC2(C)c3cc(O)ccc3CC1C2C` (stereo not shown) [Pentazocine, reference compound], the ED50 in experiment [3] was 56 mg/kg; in the experiment with Straub tail, greater than 135 mg/kg; in experiment [4] (setting [5]) it was 4 mg/kg.
The matching figures for `CCCN1CC[C@]23c4cccc(O)c4O[C@H]2CCC[C@H]3C1` (relative stereo) [Example 22]: 112 mg/kg, greater than 135 mg/kg and 0.008 mg/kg.
Consider `Cc1ccc(CCN2CCC34c5cccc(O)c5OC3CCCC4C2)cc1` (stereo not shown) [Example 36], for which the 50% effective dose (ED50) is 0.67 mg/kg in experiment [3], 39 mg/kg in the experiment with Straub tail and greater than 81 mg/kg in experiment [4] (setting [5]).
For the compound `CCN1CC[C@]23c4cccc(O)c4O[C@H]2CCC[C@H]3C1` (relative stereo) [Example 14b, 3-Ethyl-2,3,4,4aα,5,6,7,7aα-octahydro-1H-benzo[4,5]furo[3,2-e]isoquinolin-9-ol], the ED50 was 135 mg/kg in experiment [3], greater than 135 mg/kg in the experiment on Straub tail and 0.028 mg/kg in experiment [4] (setting [5]).
In the case of `COc1cccc2c1OC1CCCC3CN(CCc4ccc(C)cc4)CCC231` (stereo not shown) [Example 35], the ED50 in experiment [3] is 1.7 mg/kg; with Straub tail it was 52 mg/kg; in experiment [4] (setting [5]), 56 mg/kg.
`CCCCCCN1CCC23c4cccc(OC)c4OC2CCCC3C1` (stereo not shown) [Example 27]: the 50% effective dose (ED50) is 7 mg/kg in experiment [3], 25 mg/kg in the experiment with Straub tail and greater than 27 mg/kg in experiment [4] (setting [5]).
For the compound `Oc1cccc2c1O[C@H]1CCC[C@H]3CN(CC4CCC4)CC[C@@]231` (relative stereo) [Example 7, 3-Cyclobutylmethyl-2,3,4,4aα,5,6,7,7aα-octahydro-1H-benzo[4,5]furo[3,2-e]isoquinoline-9-ol], the ED50 in experiment [3] is 81 mg/kg; in the experiment on Straub tail, greater than 81 mg/kg; in experiment [4] (ip, i.p., read-out: EFFECT ED50 Intraperitoneal(i.p.) Anti-Straub Tail), 0.64 mg/kg.
Consider `COc1cccc2c1O[C@H]1CCC[C@H]3CN(Cc4ccccc4)CC[C@@]231` (relative stereo) [Example 10, 3-Benzyl-9-methoxy-2,3,4,4aα,5,6,7,7aα-octahydro-1H-benzo[4,5]furo[3,2-e]isoquinoline], for which the ED50 in experiment [3] was 48 mg/kg; with Straub tail, greater than 81 mg/kg; in experiment [4] (setting [5]) it was 48 mg/kg. In addition, the “narcotic antagonism, in words” value in experiment [4] (mouse anti-Straub tail test) is on record as “pure narcotic antagonists”.
In the case of `Oc1cccc2c1O[C@H]1CCC[C@H]3CN(CC4CC4)CC[C@@]231` (relative stereo) [Example 5, 3-Cyclopropylmethyl-2,3,4,4aα,5,6,7,7aα-octahydro-1H-benzo[4,5]furo[3,2-e]isoquinolin-9-ol], the ED50 in experiment [3] was 0.75 mg/kg; in the experiment on Straub tail, greater than 81 mg/kg; in experiment [4] (setting [5]) it was 0.006 mg/kg. Further, the “analgesic potency compared with morphine” value in experiment [3] (mouse analgesia data, relative to morphine) was “several times greater potency than morphine”.
As to `CCCCN1CCC23c4cccc(O)c4OC2CCCC3C1` (stereo not shown) [Example 24], the ED50 in experiment [3] is 23 mg/kg; in the experiment on Straub tail it was greater than 135 mg/kg; in experiment [4] (setting [5]), 0.032 mg/kg.
For the compound `C=CCN1CC[C@]23c4c5ccc(O)c4O[C@H]2[C@@H](O)C=C[C@H]3[C@H]1C5` [nalorphine], the “prevention of morphine-induced Straub tail, in words” value in experiment [1] is given as “prevent the induction of Straub tail in mice”. Moreover, in experiment [2], the “intrinsic analgesic activity, in words” value is “some analgesic effects”. In addition, the “analgetic properties in man, in words” value in experiment [2] (in man, Lasagna and Beecher 1954) is given as “analgetic properties in man”.
`Oc1cccc2c1O[C@H]1CCC[C@H]3CN(Cc4ccccc4)CC[C@@]231` (relative stereo) [Example 11, 3-Benzyl-2,3,4,4aα,5,6,7,7aα-octahydro-1H-benzo[4,5]furo[3,2-e]isoquinoline-9-ol]: the figures for the ED50 (in experiment [3]; in the experiment with Straub tail; in experiment [4] (setting [5])) were 29 mg/kg, greater than 81 mg/kg and 1.2 mg/kg, respectively.
For `C=CCN1CC[C@]23c4cccc(OC)c4O[C@H]2CCC[C@H]3C1` (relative stereo) [Example 15, 3-Allyl-9-methoxy-2,3,4,4aα,5,6,7,7aα-octahydro-1H-benzo[4,5]furo[3,2-e]isoquinoline], the ED50 was 62 mg/kg in experiment [3], greater than 135 mg/kg in the experiment on Straub tail and 0.3 mg/kg in experiment [4] (setting [5]).
The matching figures for `CCCN1CC[C@]23c4cccc(OC)c4O[C@H]2CCC[C@H]3C1` (relative stereo) [Example 21]: 78 mg/kg, greater than 135 mg/kg and 0.08 mg/kg.
Turning to `CC(=O)Oc1cccc2c1O[C@H]1CCC[C@H]3CN(CC4CC4)CC[C@@]231` (relative stereo) [Example 9, 3-Cyclopropylmethyl-9-acetoxy-2,3,4,4aα,5,6,7,7aα-octahydro-1H-benzo[4,5]furo[3,2-e]isoquinoline], the values for the ED50 (in experiment [3]; in the experiment with Straub tail; in experiment [4] (setting [5])) were 0.75 mg/kg, greater than 135 mg/kg and 0.005 mg/kg, respectively.
Taken in the same sequence, the figures for `COc1cccc2c1OC1CCCC3CN(Cc4ccco4)CCC231` (stereo not shown) [Example 37] were 84 mg/kg, greater than 135 mg/kg and 12 mg/kg.

The term ED50 denotes the dose that gives a 50% effect, or the effect in half of the subjects.
